# US8324186B2, “4-azetidinyl-1-heteroatom linked-cyclohexane antagonists of CCR2” (Janssen Pharmaceutica N.V., priority 2009, dated 2012)
# Molecular target: T1, CCR2 (Homo sapiens, UniProt P41597)
# T1 construct: host or cells: THP-1 human monocytic cells
# Assay: MCP-1 Receptor Binding Assay in THP-1 Cells (125I-MCP-1 displacement)
# Conditions: 0.5 nM 125I labeled MCP-1, 2 hours at 30° C., read-out: CCR2 Binding, Inhibition of MCP-1 Binding IC50
# Protocol: Compounds of the invention were subjected to various representative biological tests. The results of these tests are intended to illustrate the invention in a non-limiting fashion. MCP-1 Receptor Binding Assay in THP-1 Cells
# Human monocytic cell line THP-1 cells were obtained from American Type Culture Collection (Manassas, Va., USA). The THP-1 cells were grown in RPMI-1640 (RPMI: Roswell Park Memorial Institute Medium-cell culture growth media) supplemented with 10% fetal bovine serum in a humidified 5% CO2 atmosphere at 37° C. The cell density was maintained […].
# THP-1 (cells were incubated with 0.5 nM ^125I labeled MCP-1 (Perkin-Elmer Life Sciences, Inc. Boston, Mass.) in the presence of varying concentrations of either unlabeled MCP-1 (R & D Systems, Minneapolis, Minn.) or test compound for 2 hours at 30° C. in a 96 well plate. Cells were then harvested onto a filter plate, dried, and 20 μL of Microscint 20 was added to each well. Plates were counted in a TopCount NXT, Microplate Scintillation & Luminescence Counter (Perkin-Elmer Life Sciences, Inc. Boston, Mass.). Blank values (buffer only) were subtracted from all values and drug treated values were compared to vehicle treated values. 1 μM cold MCP-1 was used for nonspecific binding.
# Table 1 lists IC50 values for inhibition of MCP-1 binding to CCR2 obtained for test compounds of the invention. Where an IC50 value was not obtained for a particular compound, the percent inhibition is provided at a test concentration of 25 μM.
# T1 sequence (P41597 whole entry): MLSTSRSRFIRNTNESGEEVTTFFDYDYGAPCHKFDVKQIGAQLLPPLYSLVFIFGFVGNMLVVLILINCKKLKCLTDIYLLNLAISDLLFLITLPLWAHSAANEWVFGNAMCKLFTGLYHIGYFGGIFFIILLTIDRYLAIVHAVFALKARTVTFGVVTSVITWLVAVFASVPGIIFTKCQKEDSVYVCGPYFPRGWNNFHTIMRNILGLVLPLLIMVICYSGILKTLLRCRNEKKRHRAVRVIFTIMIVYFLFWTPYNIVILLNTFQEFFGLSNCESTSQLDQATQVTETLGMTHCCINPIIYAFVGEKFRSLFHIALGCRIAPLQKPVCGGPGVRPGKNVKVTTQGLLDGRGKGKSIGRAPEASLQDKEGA
row,IC50 [nM],SMILES
1,680,"O=C(CNC(=O)c1cccc(C(F)(F)F)c1)NC1CN(C2CCC(N3C(=O)c4ccccc4C3=O)CC2)C1 (single isomer, unassigned) [Example 24a, N-({1-[4-(1,3-Dioxo-1,3-dihydro-isoindol-2-yl)-cyclohexyl]-azetidin-3-ylcarbamoyl}-methyl)-3-trifluoromethyl-benzamide]"
2,24000,"O=C(CNC(=O)c1cccc(C(F)(F)F)c1)NC1CN(C2CCC(Oc3ncc(Br)cn3)CC2)C1 (single isomer, unassigned) [Example 5a, N-({1-[4-(5-Bromo-pyrimidin-2-yloxy)-cyclohexyl]-azetidin-3-ylcarbamoyl}-methyl)-3-trifluoromethyl-benzamide]"
3,430,"O=C(CNC(=O)c1cccc(C(F)(F)F)c1)NC1CN(C2CCC(NC(=O)c3ccc4c(c3)OCO4)CC2)C1 (stereo not shown) [Example 35, Benzo[1,3]dioxole-5-carboxylic acid (4-{3-[2-(3-trifluoromethyl-benzoylamino)-acetylamino]-azetidin-1-yl}-cyclohexyl)-amide]"
4,1100,"O=C(CNC(=O)c1cccc(C(F)(F)F)c1)NC1CN(C2CCC(n3cc(Cl)ccc3=O)CC2)C1 (single isomer, unassigned) [Example 22a, N-({1-[4-(2-Oxo-5-chloro-2H-pyridin-1-yl)-cyclohexyl]-azetidin-3-ylcarbamoyl}-methyl)-3-trifluoromethyl-benzamide]"
5,280,"COc1cccnc1OC1CCC(N2CC(NC(=O)CNC(=O)c3cccc(C(F)(F)F)c3)C2)CC1 (stereo not shown) [Example 14, N-({1-[4-(3-Methoxy-pyridin-2-yloxy)-cyclohexyl]-azetidin-3-ylcarbamoyl}-methyl)-3-trifluoromethyl-benzamide]"
6,110,"Cc1ccn(C2CCC(N3CC(NC(=O)CNC(=O)c4cccc(C(F)(F)F)c4)C3)CC2)c(=O)c1 (stereo not shown) [Example 20, N-({1-[4-(4-Methyl-2-oxo-2H-pyridin-1-yl)-cyclohexyl]-azetidin-3-ylcarbamoyl}-methyl)-3-trifluoromethyl-benzamide]"
7,430,"O=C(CNC(=O)c1cccc(C(F)(F)F)c1)NC1CN(C2CCC(n3cc(I)ccc3=O)CC2)C1 (single isomer, unassigned) [Example 8a, N-({1-[4-(5-Iodo-2-oxo-2H-pyridin-1-yl)-cyclohexyl]-azetidin-3-ylcarbamoyl}-methyl)-3-trifluoromethyl-benzamide]"
8,1500,"O=C(CNC(=O)c1cccc(C(F)(F)F)c1)NC1CN(C2CCC(NC(=O)Nc3ccc4c(c3)OCO4)CC2)C1 (stereo not shown) [Example 36, N-({1-[4-(3-Benzo[1,3]dioxol-5-yl-ureido)-cyclohexyl]-azetidin-3-ylcarbamoyl}-methyl)-3-trifluoromethyl-benzamide]"
9,80,"O=C(CNC(=O)c1cccc(C(F)(F)F)c1)NC1CN(C2CCC3(CC2)OCc2ccccc23)C1 (single isomer, unassigned) [Example 41a, N-[(1-3′H-Spiro[cyclohex-1,1′-isobenzofuran]-4-yl-azetidin-3-ylcarbamoyl)-methyl]-3-trifluoromethyl-benzamide]"
10,2700,"O=C(CNC(=O)c1cccc(C(F)(F)F)c1)NC1CN(C2CCC(Oc3ccncn3)CC2)C1 (single isomer, unassigned) [Example 7a, N-({1-[4-(Pyrimidin-4-yloxy)-cyclohexyl]-azetidin-3-ylcarbamoyl}-methyl)-3-trifluoromethyl-benzamide]"
11,340,"O=C(CNC(=O)c1cccc(C(F)(F)F)c1)NC1CN(C2CCC(Oc3noc4ccccc34)CC2)C1 (single isomer, unassigned) [Example 25a, N-({1-[4-(Benzo[d]isoxazol-3-yloxy)-cyclohexyl]azetidin-3-ylcarbamoyl}-methyl)-3-trifluoromethyl-benzamide]"
12,510,"O=C(CNC(=O)c1cccc(C(F)(F)F)c1)NC1CN(C2CCC(n3ncc4ccccc43)CC2)C1 (single isomer, unassigned) [Example 32a, N-{[1-(4-Indazol-1-yl-cyclohexyl)-azetidin-3-ylcarbamoyl]-methyl}-3-trifluoromethyl-benzamide]"
13,330,"Cc1cccn(C2CCC(N3CC(NC(=O)CNC(=O)c4cccc(C(F)(F)F)c4)C3)CC2)c1=O (single isomer, unassigned) [Example 18a, N-({1-[4-(3-Methyl-2-oxo-2H-pyridin-1-yl)-cyclohexyl]-azetidin-3-ylcarbamoyl}-methyl)-3-trifluoromethyl-benzamide]"
14,820,"Cc1ccc(OC2CCC(N3CC(NC(=O)CNC(=O)c4cccc(C(F)(F)F)c4)C3)CC2)nc1 (single isomer, unassigned) [Example 12a, N-({1-[4-(5-Methyl-pyridin-2-yloxy)-cyclohexyl]-azetidin-3-ylcarbamoyl}-methyl)-3-trifluoromethyl-benzamide]"
15,5900,"O=C(CNC(=O)c1cccc(C(F)(F)F)c1)NC1CN(C2CCC(n3cccnc3=O)CC2)C1 (stereo not shown) [Example 4, N-({1-[4-(2-Oxo-2H-pyrimidin-1-yl)-cyclohexyl]-azetidin-3-ylcarbamoyl}-methyl)-3-trifluoromethyl-benzamide]"
16,100,"COc1cccn(C2CCC(N3CC(NC(=O)CNC(=O)c4cccc(C(F)(F)F)c4)C3)CC2)c1=O (single isomer, unassigned) [Example 13a, N-({1-[4-(3-Methoxy-2-oxo-2H-pyridin-1-yl)-cyclohexyl]-azetidin-3-ylcarbamoyl}-methyl)-3-trifluoromethyl-benzamide]"
17,1600,"C#Cc1ccc(=O)n(C2CCC(N3CC(NC(=O)CNC(=O)c4cccc(C(F)(F)F)c4)C3)CC2)c1 (stereo not shown) [Example 9, N-({1-[4-(5-Ethynyl-2-oxo-2H-pyridin-1-yl)-cyclohexyl]-azetidin-3-ylcarbamoyl}-methyl)-3-trifluoromethyl-benzamide]"
18,95,"O=C(CNC(=O)c1cccc(C(F)(F)F)c1)NC1CN(C2CCC(n3oc4ccccc4c3=O)CC2)C1 (single isomer, unassigned) [Example 26a, N-({1-[4-(3-Oxo-3H-benzo[d]isoxazol-2-yl)-cyclohexyl]-azetidin-3-ylcarbamoyl}-methyl)-3-trifluoromethyl-benzamide]"
19,5400,"O=C(CNC(=O)c1cccc(C(F)(F)F)c1)NC1CN(C2CCC(n3ccc(O)cc3=O)CC2)C1 (single isomer, unassigned) [Example 15a, N-({1-[4-(4-Hydroxy-2-oxo-2H-pyridin-1-yl)-cyclohexyl]-azetidin-3-ylcarbamoyl}-methyl)-3-trifluoromethyl-benzamide]"
20,130,"O=C(CNC(=O)c1cccc(C(F)(F)F)c1)NC1CN(C2CCC(n3ccccc3=O)CC2)C1 (single isomer, unassigned) [Example 1a, N-({1-[4-(2-Oxo-2H-pyridin-1-yl)-cyclohexyl]-azetidin-3-ylcarbamoyl}-methyl)-3-trifluoromethyl-benzamide]"
21,1000,"N#Cc1ccc(=O)n(C2CCC(N3CC(NC(=O)CNC(=O)c4cccc(C(F)(F)F)c4)C3)CC2)c1 (stereo not shown) [Example 10, N-({1-[4-(5-Cyano-2-oxo-2H-pyridin-1-yl)-cyclohexyl]-azetidin-3-ylcarbamoyl}-methyl)-3-trifluoromethyl-benzamide]"
22,230,"O=C(CNC(=O)c1cccc(C(F)(F)F)c1)NC1CN(C2CCC(Oc3ccccn3)CC2)C1 (single isomer, unassigned) [Example 2a, N-({1-[4-(Pyridin-2-yloxy)-cyclohexyl]-azetidin-3-ylcarbamoyl}-methyl)-3-trifluoromethyl-benzamide]"
23,9000,"Cc1ccc(C)n1C1CCC(N2CC(NC(=O)CNC(=O)c3cccc(C(F)(F)F)c3)C2)CC1 (stereo not shown) [Example 37, N-({1-[4-(2,5-Dimethyl-pyrrol-1-yl)-cyclohexyl]-azetidin-3-ylcarbamoyl}-methyl)-3-trifluoromethyl-benzamide]"
24,2200,"O=C(CNC(=O)c1cccc(C(F)(F)F)c1)NC1CN(C2CCC3(CC2)OC(=O)Nc2ccccc23)C1 (single isomer, unassigned) [Example 40a]"
25,410,"O=C(CNC(=O)c1cccc(C(F)(F)F)c1)NC1CN(C2CCC(Oc3cccnn3)CC2)C1 (stereo not shown) [Example 23, N-({1-[4-(Pyridazin-3-yloxy)-cyclohexyl]-azetidin-3-ylcarbamoyl}-methyl)-3-trifluoromethyl-benzamide]"
26,380,"O=C(CNC(=O)c1cccc(C(F)(F)F)c1)NC1CN(C2CCC(n3cnccc3=O)CC2)C1 (single isomer, unassigned) [Example 6a, N-({1-[4-(6-Oxo-6H-pyrimidin-1-yl)-cyclohexyl]-azetidin-3-ylcarbamoyl}-methyl)-3-trifluoromethyl-benzamide]"
27,66,"Cc1ccnc(OC2CCC(N3CC(NC(=O)CNC(=O)c4cccc(C(F)(F)F)c4)C3)CC2)c1 (stereo not shown) [Example 19, N-({1-[4-(4-Methyl-pyridin-2-yloxy)-cyclohexyl]-azetidin-3-ylcarbamoyl}-methyl)-3-trifluoromethyl-benzamide]"

row,SMILES,IC50 [nM]
1,"C[Si](C)(C)C#Cc1cnn(C2CCC(N3CC(NC(=O)CNC(=O)c4cccc(C(F)(F)F)c4)C3)CC2)c1 (single isomer, unassigned) [Example 29a, 3-Trifluoromethyl-N-({1-[4-(4-trimethylsilanylethynyl-pyrazol-1-yl)-cyclohexyl]-azetidin-3-ylcarbamoyl}-methyl)-benzamide]",21
